Assay results taken from patent publication US4950662A, “2-oxa-isocephem compounds, compositions containing the same and processes for preparing the same” (Otsuka Pharmaceutical Co., Ltd., priority 1987, dated 1990).
Converted amounts (≈) assume the structure as drawn. Where two headings read alike, the source gives them in different places.

Key:
S. aureus FDA-209-p = assay: MIC by agar plate dilution method, S. aureus FDA-209-p; assay type: cell-based, Staphyloccocus aureus; details: Staphylococcus aureus, FDA209, inoculum 1 x 10^6 cells/ml
Protocol: (§1) In order to investigate the in vitro activity of the under-mentioned compounds against various bacteria, the minimal inhibitory concentration (MIC) values were determined by the agar plate dilution method [see Chemotherapy, 22, 1123-1128 (1974)].
(§2) Each test inoculum was adjusted to I x 10^6 cells/ml (O.D., 600m : 0.07-0.16).

E. coli NIHJ = assay: MIC by agar plate dilution method, E. coli NIHJ; assay type: cell-based; details: Escherichia coli, inoculum 1 x 10^6 cells/ml
Protocol: as §1, §2

K. pneumoniae NCTC-9632 = assay: MIC by agar plate dilution method, K. pneumoniae NCTC-9632; assay type: cell-based; details: Klebsiella pneumoniae, NCTC9632
Protocol: as §1, §2

M. morganii IIDKono = assay: MIC by agar plate dilution method, M. morganii IIDKono; assay type: cell-based; details: Morganella morganii
Protocol: as §1, §2

E. coli No. 29 = assay: MIC by agar plate dilution method, E. coli No. 29; assay type: cell-based; details: Escherichia coli, inoculum 1 x 10^6 cells/ml
Protocol: as §1, §2

P. mirabilis ATCC-29906 = assay: MIC by agar plate dilution method, P. mirabilis ATCC-29906; assay type: cell-based; details: Proteus mirabilis, ATCC29906, inoculum 1 x 10^6 cells/ml
Protocol: as §1, §2

S. marcescens ATCC-13880 = assay: MIC by agar plate dilution method, S. marcescens ATCC-13880; assay type: cell-based; details: Serratia marcescens, ATCC13880, inoculum 1 x 10^6 cells/ml
Protocol: as §1, §2

P. mirabilis 1287 = assay: MIC by agar plate dilution method, P. mirabilis 1287; assay type: cell-based; details: Proteus mirabilis, inoculum 1 x 10^6 cells/ml
Protocol: as §1, §2

P. aeruginosa NCTC-10490 = assay: MIC by agar plate dilution method, P. aeruginosa NCTC-10490; assay type: cell-based; details: Pseudomonas aeruginosa, NCTC10490, inoculum 1 x 10^6 cells/ml
Protocol: as §1, §2

S. marcescens IFO-12648 = assay: MIC by agar plate dilution method, S. marcescens IFO-12648; assay type: cell-based; details: Serratia marcescens, IFO12648, inoculum 1 x 10^6 cells/ml
Protocol: as §1, §2

M. morganii ATCC-25830 = assay: MIC by agar plate dilution method, M. morganii ATCC-25830; assay type: cell-based; details: Morganella morganii, ATCC25830
Protocol: as §1, §2

[1] = K. pneumoniae NCTC-9632, inoculum 1 x 10^6 cells/ml, read-out: MIC
[2] = M. morganii IIDKono, inoculum 1 x 10^6 cells/ml, read-out: MIC
[3] = M. morganii ATCC-25830, inoculum 1 x 10^6 cells/ml, read-out: MIC

Row | Compound | MIC (S. aureus FDA-209-p) [µg/mL] | MIC (E. coli NIHJ) [µg/mL] | MIC (K. pneumoniae NCTC-9632; [1]) [µg/mL] | MIC (M. morganii IIDKono; [2]) [µg/mL] | MIC (E. coli No. 29) [µg/mL] | MIC (P. mirabilis ATCC-29906) [µg/mL] | MIC (S. marcescens ATCC-13880) [µg/mL] | MIC (P. mirabilis 1287) [µg/mL] | MIC (P. aeruginosa NCTC-10490) [µg/mL] | MIC (S. marcescens IFO-12648) [µg/mL] | MIC (M. morganii ATCC-25830; [3]) [µg/mL] | MIC (M. morganii ATCC-25830) [µg/mL] | MIC (K. pneumoniae NCTC-9632) [µg/mL] | MIC (M. morganii IIDKono) [µg/mL]
1 | CO/N=C(\C(=O)N[C@@H]1C(=O)N2C(C(=O)O)=C(CN3CCCC3)OC[C@H]12)c1csc(N)n1 [No. 1, (6S,7S)-7-[2-(2-aminothiazol-4-yI)-2-methoxyiminoacetamide]-3-(1-pyrolidinyl)methyl-Δ^3-0-2-isocephem-4-carboxylic acid (syn isomer)] | 1.56 (≈ 3.46 µM) | 0.1 (≈ 0.222 µM) | 0.2 (≈ 0.444 µM) | 0.2 (≈ 0.444 µM) | 0.1 (≈ 0.222 µM) | 0.2 (≈ 0.444 µM) | 0.39 (≈ 0.866 µM) | – | – | – | – | – | – | –
2 | CO/N=C(\C(=O)N[C@@H]1C(=O)N2C(C(=O)O)=C(CN3CCc4ccccc4C3)OC[C@H]12)c1csc(N)n1 [No. 3, (6S,7S}-7-[2-(2-aminothiazol-4-yl)-2-methoxyiminoacetamide]-3-(1,2,3,4-tetrahydroisoquinolyn-2-yl}methyl-Δ^3-0-2-isocephem-4-carboxylic acid (syn isomer)] | 0.39 (≈ 0.761 µM) | 0.05 (≈ 0.0976 µM) | 0.1 (≈ 0.195 µM) | 0.2 (≈ 0.39 µM) | 0.05 (≈ 0.0976 µM) | 0.1 (≈ 0.195 µM) | 0.39 (≈ 0.761 µM) | – | – | – | – | – | – | –
3 | C[N+]1(CC2=C(C(=O)[O-])N3C(=O)[C@@H](NC(=O)/C(=N\OC4CCCC4)c4csc(N)n4)[C@H]3CO2)CCCC1 [No. 11, (6S,7S)-7-[2-(2-aminothiazol-4-yl)-2-cyclopentyloxyiminoacetamide]-3-(I-methyl-1-pyrrolidinio]methyl-Δ^3-0-2-isocephem-4-carboxylate (syn isomer)] | 0.2 (≈ 0.386 µM) | 0.1 (≈ 0.193 µM) | 0.1 (≈ 0.193 µM) | – | 0.1 (≈ 0.193 µM) | – | – | 0.2 (≈ 0.386 µM) | 12.5 (≈ 24.1 µM) | 0.39 (≈ 0.752 µM) | 0.2 (≈ 0.386 µM) | – | – | –
4 | CO/N=C(\C(=O)N[C@@H]1C(=O)N2C(C(=O)[O-])=C(C[N+]3(C)CCc4ccccc4C3)OC[C@H]12)c1csc(N)n1 (stereo partly drawn) [No. 4, (6S,7S)-7-[2-(2-aminothiazol-4-Yl)-2-methoxyiminoacetamide]3-(2-methyl-2-1,2,3,4-tetrahydroisoquinoline-2-yl)methyl-Δ^3-0-2-isocephem-4-carboxylate (syn isomer)] | 0.78 (≈ 1.48 µM) | 0.1 (≈ 0.19 µM) | 0.2 (≈ 0.38 µM) | 0.1 (≈ 0.19 µM) | 0.05 (≈ 0.095 µM) | 0.2 (≈ 0.38 µM) | 0.2 (≈ 0.38 µM) | – | – | – | – | – | – | –
5 | CC(C)O/N=C(\C(=O)N[C@@H]1C(=O)N2C(C(=O)[O-])=C(C[N+]3(C)CCCC3)OC[C@H]12)c1csc(N)n1 [No. 10, (6S,7S)-7-[2-(2-aminothiazol-4-yl)-2-(3-isopropyloxyiminoacetamide]-3-(1-methyl-1pyrrolidinio)methyl-^66 ^3-0-2-isocephem-4-carboxylate (syn isomer)] | 0.2 (≈ 0.406 µM) | 0.1 (≈ 0.203 µM) | 0.05 (≈ 0.102 µM) | – | 0.1 (≈ 0.203 µM) | – | – | 0.1 (≈ 0.203 µM) | 12.5 (≈ 25.4 µM) | 0.39 (≈ 0.792 µM) | 0.1 (≈ 0.203 µM) | – | – | –
6 | CC(C)O/N=C(\C(=O)N[C@@H]1C(=O)N2C(C(=O)[O-])=C(C[n+]3cccc4c3CCC4)OC[C@H]12)c1csc(N)n1 [No. 12, (6S,7S}-7-[2-(2-amino&hiazol-4-Yl}-2-isopropyloxyiminoacetamide]-3-[(6,7-dihydro-5H-1-pyridinio)]methyl]-Δ^3-0-2-isocephem-4-carboxylate (syn isomer)] | 0.1 (≈ 0.19 µM) | 0.05 (≈ 0.095 µM) | ≤ 0.025 | – | ≤ 0.05 | – | – | 0.05 (≈ 0.095 µM) | 25 (≈ 47.5 µM) | 0.39 (≈ 0.741 µM) | 0.2 (≈ 0.38 µM) | – | – | –
7 | CO/N=C(\C(=O)N[C@@H]1C(=O)N2C(C(=O)[O-])=C(C[n+]3ccc(SCC#N)cc3)OC[C@H]12)c1csc(N)n1 [No. 6, (6S,7S)-7-[2-(2-aminothiazol-4-yl}-2-methoxyiminoaoetamide]-3-[(4-cyanomethyIthio-1-pyridinio)methyl]-Δ^3-0-2-isocephem-4-carboxylate (syn isomer)] | 0.78 (≈ 1.47 µM) | ≤ 0.025 | ≤ 0.025 | ≤ 0.025 | ≤ 0.025 | ≤ 0.025 | 0.05 (≈ 0.0944 µM) | – | – | – | – | – | – | –
8 | CC(C)O/N=C(\C(=O)N[C@@H]1C(=O)N2C(C(=O)[O-])=C(C[n+]3ccc(-c4cnco4)cc3)OC[C@H]12)c1csc(N)n1 [No. 8, (6S,7S)-7-[2-(2-aminothiazol-4-yl}-2-isopropyloxyiminoacetamide]-3-[[4-(5-oxazolyl)-1-pyridinio]methyl]-Δ^3-0-2-isocephem-4-carboxylate (syn isomer)] | 0.2 (≈ 0.361 µM) | 0.05 (≈ 0.0903 µM) | ≤ 0.025 | – | ≤ 0.05 | – | – | 0.05 (≈ 0.0903 µM) | 25 (≈ 45.2 µM) | 0.2 (≈ 0.361 µM) | – | 0.05 (≈ 0.0903 µM) | – | –
9 | CO/N=C(\C(=O)N[C@@H]1C(=O)N2C(C(=O)[O-])=C(C[n+]3ccccc3)OC[C@H]12)c1csc(N)n1 [No. 5, (6S,7S)-7-[2-(2-aminothiazol-4-yl)-2-methoxyiminoacetamide]-3-[(1-pyridinio)methyl]-Δ^3-0-2-isocephem-4-carboxylate (syn isomer)] | 0.39 (≈ 0.851 µM) | 0.05 (≈ 0.109 µM) | – | – | 0.05 (≈ 0.109 µM) | 0.1 (≈ 0.218 µM) | 0.1 (≈ 0.218 µM) | – | – | – | – | – | 0.05 (≈ 0.109 µM) | 0.05 (≈ 0.109 µM)
10 | CO/N=C(\C(=O)N[C@@H]1C(=O)N2C(C(=O)[O-])=C(C[n+]3ccc(-c4cc[nH]n4)cc3)OC[C@H]12)c1csc(N)n1 [No. 7, (6S,7S}-7-[2-[2-aminothiazol-4-Yl}-2-methoxyiminoacetamide]-3-[[4-(3-pyrazolyl)-1-pyridinio]methyl]-Δ^3-0-2-isocephem-4-carboxylate (syn isomer)] | 0.2 (≈ 0.381 µM) | ≤ 0.025 | ≤ 0.025 | ≤ 0.025 | ≤ 0.025 | ≤ 0.025 | 0.1 (≈ 0.191 µM) | – | – | – | – | – | – | –
11 | Nc1nc(/C(=N/OC2CCCC2)C(=O)N[C@@H]2C(=O)N3C(C(=O)[O-])=C(C[n+]4ccc(-c5cnco5)cc4)OC[C@H]23)cs1 [No. 9, (6S,7S}-7-[2-(2-aminothiazol-4-yl)-2-cyclopentyloxyiminoacetamide]-3-[[4-(5-oxazolyl)-1-pyridinio]methyl]-Δ^3-0-2-isocephem-4carboxylate (syn isomer)] | 0.1 (≈ 0.173 µM) | 0.1 (≈ 0.173 µM) | ≤ 0.025 | – | 0.05 (≈ 0.0863 µM) | – | – | 0.05 (≈ 0.0863 µM) | 12.5 (≈ 21.6 µM) | 0.2 (≈ 0.345 µM) | 0.1 (≈ 0.173 µM) | – | – | –
12 | CO/N=C(\C(=O)N[C@@H]1C(=O)N2C(C(=O)[O-])=C(C[N+]3(C)CCCC3)OC[C@H]12)c1csc(N)n1 [No. 2, (6S,7S)-7-[2-(2-aminothiazol-4-yl)-2-methoxyiminoacetamide]-3-(I-methyl-1-pyrrolidinio)methyl-Δ^3-0-2-isocephem-4-carboxylate (syn isomer)] | 0.39 (≈ 0.84 µM) | 0.05 (≈ 0.108 µM) | – | 0.1 (≈ 0.215 µM) | 0.05 (≈ 0.108 µM) | 0.1 (≈ 0.215 µM) | 0.1 (≈ 0.215 µM) | – | – | – | – | – | 0.05 (≈ 0.108 µM) | –
13 | C=CCO/N=C(\C(=O)N[C@@H]1C(=O)N2C(C(=O)[O-])=C(C[n+]3ccc(-c4cnco4)cc3)OC[C@H]12)c1csc(N)n1 [No. 13, (6S,7S}-7-[2-(2-aminothiazol-4-Yl)-2-allyloxyiminoacetamide]-3-[[4-[5-oxazolyl)-1-pyridinio]methyl]-Δ^3-0-2-isocephem-4-carboxylate (syn isomer)] | 0.1 (≈ 0.181 µM) | 0.05 (≈ 0.0907 µM) | ≤ 0.025 | – | 0.05 (≈ 0.0907 µM) | – | – | 0.1 (≈ 0.181 µM) | 12.5 (≈ 22.7 µM) | 0.2 (≈ 0.363 µM) | 0.2 (≈ 0.363 µM) | – | – | –
